Source: patent publication US11446264B2, “Memory manipulation via modification of protein kinase C zeta activity” (THE RESEARCH FOUNDATION FOR THE STATE UNIVERSITY OF NEW YORK, priority 2017, dated 2022)

Legend:
[1] = test system: hippocampal slices from wild-type mice; test: maintenance of LTP in hippocampal slices from wild-type mice; assay type: cell-based, mouse; conditions: NSA 10 μM applied 3 h post-tetanization, FIG. 3
Procedure: (§1) Acute mouse hippocampal slices (450 μm) were dissected, bathed in ice-cold dissection buffer, and sliced with a McIlwain tissue slicer in a cold room (4° C.). The dissection buffer contained (in mM): 125 NaCl, 2.5 KCl, 1.25 NaH2PO4, 26 NaHCO3, 11 glucose, 10 MgCl2, and 0.5 CaCl2, and was bubbled with 95% O2/5% CO2 to maintain the pH at 7.4. The slices were immediately transferred into an interface recording chamber (31.5±1° C.). The recording superfusate consisted of (in mM): 118 NaCl, 3.5 KCl, 2.5 CaCl2, 1.3 MgSO4, 1.25 NaH2PO4, 24 NaHCO3, and 15 glucose, bubbled with 95% O2/5% CO2, with a flow rate of 0.5 ml/min. […] Pathway independence was confirmed by the absence of paired-pulse facilitation between the two pathways. The high-frequency stimulation consisted of standard two 100 Hz-1 s tetanic trains, at 25% of spike threshold, spaced 20 s apart, which is optimized to produce a relatively rapid onset of protein synthesis-dependent late-LTP. The maximum slope of the rise of the fEPSP is analyzed on a PC using the WinLTP data acquisition program. Application of NSA (black bar) beginning 3 hr after application of high-frequency stimulation reversed the maintenance of LTP seen during this time period, which is known to require PKC zeta/PKM zeta activity.

wild-type mice [2] = test: active place avoidance, retraining and retesting in a different context after NSA; assay type: in vivo, mouse; conditions: n's=5, FIG. 6
From the text: Above, representative diagram of training protocol, similar to that described for FIG. 5. After training, memory erasure by NSA injection in hippocampus, and retention testing in one context, mice are immediately retrained and retested in a different context. NSA on relearning ([…] with repeated measurements). There is a significant interaction between the effects of treatment (control, NSA) and trials (pretraining, training, retention in two environments) (F5,40=4.41, P=0.0027). The main effect of treatment is F1,8=3.34, p=0.10. […] Thus, the effects NSA administration has on inhibiting memory are not due to generalized, permanent damage to neural substrates responsible for learning and memory.

[3] = test system: hippocampal slices from mice lacking expression of PKC zeta/PKM zeta; test: maintenance of LTP in hippocampal slices from PKC zeta/PKM zeta null mice; assay type: cell-based, mouse; conditions: FIG. 4
Procedure: as §1, with “activity. […]” for “activity.”

wild-type mice [4] = test: active place avoidance, long-term memory retention, wild-type mice; assay type: in vivo, mouse; conditions: 5 nmol in 0.5 μl/hippocampus, 1 day after training, FIG. 5
Procedure: (§2) A commercial computer-controlled active place avoidance system was used (Bio-Signal Group, Acton, Mass.). The position of the mouse on a 40 cm diameter circular arena rotating at 1 rpm was determined 30 times per second by video tracking from an overhead camera (Tracker, Bio-Signal Group). All experiments used the ‘Room+Arena−’ task variant that challenges the mouse on the rotating arena to avoid a shock zone that was a stationary 60° sector. A constant current foot-shock (60 Hz, 500 ms) was delivered after entering the shock zone for 500 ms and was repeated each 1500 ms until the mouse left the shock zone. The arena rotation periodically transported the animal into the shock zone, forcing it to actively avoid the location of shock. The shock amplitude was 0.2 or 0.3 mA, which was determined for each animal in the first session to be the minimum that elicited flinch or escape responses.
(§3) A clear wall made from Polyethylene Terephtalate Glycol-modified (PET-G) prevented the animal from jumping off the elevated arena surface. […] Every 33 ms, the software determined the mouse's position, whether it was in the shock zone, and whether to deliver shock. The time series of the tracked positions was analyzed offline (TrackAnalysis, Bio-Signal Group) to extract a number of end point measures. […]

PKCζ-null mice = test: active place avoidance, long-term memory retention, PKC zeta/PKM zeta null mice; assay type: in vivo, mouse; conditions: 5 nmol in 0.5 μl/hippocampus, 1 day after training, FIG. 5
Procedure: as §2, §3

PKC zeta = molecular target: T1, PKC zeta (Homo sapiens, UniProt Q05513); test: kinase activity assay ([γ-32P]ATP, e-peptide substrate), PKC zeta; assay type: biochemical
T1 construct: made in house
T1 sequence (Q05513 1-592): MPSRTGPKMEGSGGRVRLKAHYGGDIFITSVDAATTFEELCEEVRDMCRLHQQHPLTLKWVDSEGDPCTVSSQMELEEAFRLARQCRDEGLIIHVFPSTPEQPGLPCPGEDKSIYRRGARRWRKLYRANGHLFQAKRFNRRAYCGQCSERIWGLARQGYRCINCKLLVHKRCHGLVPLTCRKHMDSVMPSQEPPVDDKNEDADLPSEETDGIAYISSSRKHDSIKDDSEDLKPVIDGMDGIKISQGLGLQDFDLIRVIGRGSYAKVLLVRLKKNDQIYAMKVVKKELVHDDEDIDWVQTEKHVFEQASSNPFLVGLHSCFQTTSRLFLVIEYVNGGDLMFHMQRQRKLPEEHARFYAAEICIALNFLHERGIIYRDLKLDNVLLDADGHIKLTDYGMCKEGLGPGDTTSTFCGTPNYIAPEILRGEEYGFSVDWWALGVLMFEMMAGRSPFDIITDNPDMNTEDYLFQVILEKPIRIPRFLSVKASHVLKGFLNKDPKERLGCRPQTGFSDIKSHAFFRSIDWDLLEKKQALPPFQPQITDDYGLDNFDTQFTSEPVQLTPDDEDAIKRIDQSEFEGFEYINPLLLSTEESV
Procedure: (§4) In separate experiments, PKC zeta and PKM zeta were recombinantly expressed and purified. PKC iota/lambda was purchased from ProQinase GmbH (Freiburg, Germany). The reaction mixture ([…] final volume) contained: 50 mM Tris-HCl (pH 7.4), 10 mM MgCl2, 1 mM DTT, […] e-peptide substrate (ERMRPRKRQGSVRRRV, AnaSpec, Freemont, Calif.), in the presence or absence of phosphatidylserine (5 mg/ml, Avanti Polar Lipids, Alabaster, Ala.), and PKC iota/lambda (184 ng, 0.2 pmol/min per assay) or PKM zeta (4 ng, 0.2 pmolmin-1/assay), in the presence or absence of NSA at concentrations given on the X axis. The reaction, initiated with the addition of […] (final concentration, ˜1-3 μCi [γ-32P]/assay), was for 30 min at 30° C., which is in the linear range for enzyme concentration (data not shown). The reaction was stopped by addition of […] of 100 mM cold ATP and 100 mM EDTA, and 40 ml of the reaction mixture was spotted onto phosphocellulose paper and counted by liquid scintillation. Activity was measured as the difference between counts incorporated in the presence and absence of enzyme. Autonomous kinase activity is defined as activity in the absence of phosphatidylserine. […] Thus, as disclosed herein, administering NSA inhibits activity of PKC zeta and PKM zeta.

PKC iota/lambda = molecular target: T2, PKC iota/lambda (Homo sapiens, UniProt P41743); test: kinase activity assay ([γ-32P]ATP, e-peptide substrate), PKC iota/lambda; assay type: biochemical; conditions: at doses up to 10 μM
T2 construct: purchased ProQinase GmbH (Freiburg, Germany)
T2 sequence (P41743 1-596): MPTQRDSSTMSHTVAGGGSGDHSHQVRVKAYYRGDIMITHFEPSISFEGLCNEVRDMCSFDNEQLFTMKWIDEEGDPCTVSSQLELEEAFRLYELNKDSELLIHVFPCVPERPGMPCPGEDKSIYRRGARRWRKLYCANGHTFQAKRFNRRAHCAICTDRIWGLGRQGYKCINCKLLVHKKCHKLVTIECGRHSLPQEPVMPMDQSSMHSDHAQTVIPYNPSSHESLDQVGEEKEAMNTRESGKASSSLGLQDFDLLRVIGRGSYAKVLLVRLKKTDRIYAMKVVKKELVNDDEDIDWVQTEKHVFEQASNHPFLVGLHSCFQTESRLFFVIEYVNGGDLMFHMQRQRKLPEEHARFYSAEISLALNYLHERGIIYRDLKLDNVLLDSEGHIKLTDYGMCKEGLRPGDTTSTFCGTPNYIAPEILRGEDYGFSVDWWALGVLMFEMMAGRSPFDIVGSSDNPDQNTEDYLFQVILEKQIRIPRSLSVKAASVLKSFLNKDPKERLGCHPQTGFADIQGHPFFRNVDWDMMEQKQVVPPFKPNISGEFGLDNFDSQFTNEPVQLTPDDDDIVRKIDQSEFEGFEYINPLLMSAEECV
Procedure: as §4

memory retention of the post-injection training (different context) (wild-type mice [2]; retrained and retested after NSA injection in hippocampus): no effect
IC50 (PKC zeta; FIG. 2, mean±SEM, ns=3, 30 min at 30° C., read-out: IC50 as a negative modulator of PKC zeta/PKM zeta activity): 100 to 200 nM
decrease of PKC zeta/PKM zeta activity (PKC zeta; FIG. 2, extent of decrease): approximately 50%
effect on PKC iota/lambda kinase activity (PKC iota/lambda): without effect
SMILES: O=S(=O)(O)c1cc(O)c2c(S(=O)(=O)O)cc(S(=O)(=O)O)cc2c1 [NSA, 1-naphthol-3,6,8-trisulphonic acid]
maintenance of LTP (fEPSP slope) [1]: reverses maintenance of LTP
memory retention of the pre-injection training (wild-type mice [2]; NSA injection in hippocampus): disrupts memory retention
maintenance of LTP (fEPSP slope) [3]: no effect on maintenance of LTP
retention of avoidance (time to first enter the shock zone) (wild-type mice [4]): inhibited retention of avoidance
retention of avoidance (time to first enter the shock zone) (PKCζ-null mice): did not affect retention testing
